From PubChem BioAssay (NCI)
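Cultured in 96-well plates, cells were exposed to test compound for 48 hours across five concentrations. Here, GI50 denotes the concentration required for 50% inhibition of growth. TGI denotes the concentration required for complete inhibition of growth.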

Columns and labels:
Assay in all cases: inhibition of tumour cell growth, NCI panel, 48 h
SK-MEL-28 melanoma = tested on: SK-MEL-28 melanoma
HCT-15 colon = tested on: HCT-15 colon
ACHN renal = tested on: ACHN renal
UO-31 renal = tested on: UO-31 renal
HT29 colon = tested on: HT29 colon
SR leukemia = tested on: SR leukemia
MDA-MB-231 breast = tested on: MDA-MB-231 breast
NCI-H460 lung = tested on: NCI-H460 lung
SF-539 CNS = tested on: SF-539 CNS
SN12C renal = tested on: SN12C renal
MCF7 breast = tested on: MCF7 breast
HOP-62 NSCLC = tested on: HOP-62 NSCLC
IGROV1 ovarian = tested on: IGROV1 ovarian
SK-MEL-2 melanoma = tested on: SK-MEL-2 melanoma
KM12 colon = tested on: KM12 colon
K-562 leukemia = tested on: K-562 leukemia
NCI-H23 lung = tested on: NCI-H23 lung
SK-OV-3 ovarian = tested on: SK-OV-3 ovarian
HCT-116 colon = tested on: HCT-116 colon
LOX IMVI melanoma = tested on: LOX IMVI melanoma
NCI-H522 lung = tested on: NCI-H522 lung
786-0 renal = tested on: 786-0 renal
COLO 205 colon = tested on: COLO 205 colon
TK-10 renal = tested on: TK-10 renal
OVCAR-5 ovarian = tested on: OVCAR-5 ovarian
HCC-2998 colon = tested on: HCC-2998 colon
NCI-H226 lung = tested on: NCI-H226 lung
MOLT-4 leukemia = tested on: MOLT-4 leukemia
T-47D breast = tested on: T-47D breast
UACC-257 melanoma = tested on: UACC-257 melanoma
UACC-62 melanoma = tested on: UACC-62 melanoma
OVCAR-3 ovarian = tested on: OVCAR-3 ovarian
OVCAR-8 ovarian = tested on: OVCAR-8 ovarian
HOP-92 NSCLC = tested on: HOP-92 NSCLC
PC-3 prostate = tested on: PC-3 prostate
CAKI-1 renal = tested on: CAKI-1 renal
SNB-19 CNS = tested on: SNB-19 CNS
A549 NSCLC = tested on: A549 NSCLC
M14 melanoma = tested on: M14 melanoma
BT-549 breast = tested on: BT-549 breast
OVCAR-4 ovarian = tested on: OVCAR-4 ovarian
EKVX NSCLC = tested on: EKVX NSCLC
MDA-MB-468 breast = tested on: MDA-MB-468 breast
MALME-3M melanoma = tested on: MALME-3M melanoma
SNB-75 CNS = tested on: SNB-75 CNS
RPMI-8226 leukemia = tested on: RPMI-8226 leukemia
A498 renal = tested on: A498 renal
NCI/ADR-RES ovarian = tested on: NCI/ADR-RES ovarian
U251 CNS = tested on: U251 CNS
HL-60(TB) leukemia = tested on: HL-60(TB) leukemia
SF-268 CNS = tested on: SF-268 CNS
SF-295 CNS = tested on: SF-295 CNS
HS 578T breast = tested on: HS 578T breast
SW-620 colon = tested on: SW-620 colon
DU-145 prostate = tested on: DU-145 prostate
CCRF-CEM leukemia = tested on: CCRF-CEM leukemia
SK-MEL-5 melanoma = tested on: SK-MEL-5 melanoma

`COc1ccsc1/C=N/NC(=O)c1[nH]c2ccc(Br)cc2c1-c1ccccc1` showed a GI50 (SK-MEL-28 melanoma) of 925 nM, a TGI (SK-MEL-28 melanoma) of 40800 nM and a GI50 (HCT-15 colon) of 372 nM. It also gave a TGI (HCT-15 colon) of 16400 nM, a GI50 (ACHN renal) of 710 nM and a TGI (ACHN renal) of 20700 nM. The GI50 (UO-31 renal) was 579 nM, the TGI (UO-31 renal) was 34800 nM and the GI50 (HT29 colon) was 271 nM. For the same compound, the TGI (HT29 colon) was 698 nM, the GI50 (SR leukemia) was 369 nM and the TGI (SR leukemia) was > 100000 nM. It also gave a GI50 (MDA-MB-231 breast) of 437 nM, a TGI (MDA-MB-231 breast) of 13000 nM and a GI50 (NCI-H460 lung) of 362 nM. The TGI (NCI-H460 lung) was 11000 nM, the GI50 (SF-539 CNS) was 233 nM and the TGI (SF-539 CNS) was 584 nM. The GI50 (SN12C renal) was 517 nM, the TGI (SN12C renal) was 8110 nM and the GI50 (MCF7 breast) was 332 nM. The TGI (MCF7 breast) was 16500 nM, the GI50 (HOP-62 NSCLC) was 468 nM and the TGI (HOP-62 NSCLC) was > 45100 nM. It also gave a GI50 (IGROV1 ovarian) of 582 nM, a TGI (IGROV1 ovarian) of 20500 nM and a GI50 (SK-MEL-2 melanoma) of 308 nM. It also gave a TGI (SK-MEL-2 melanoma) of 10700 nM, a GI50 (KM12 colon) of 428 nM and a TGI (KM12 colon) of 13800 nM. For the same compound, the GI50 (K-562 leukemia) was 282 nM, the TGI (K-562 leukemia) was > 55700 nM and the GI50 (NCI-H23 lung) was 568 nM. It also gave a TGI (NCI-H23 lung) of 25200 nM, a GI50 (SK-OV-3 ovarian) of 500 nM and a TGI (SK-OV-3 ovarian) of 34700 nM. The GI50 (HCT-116 colon) was 369 nM, the TGI (HCT-116 colon) was 5510 nM and the GI50 (LOX IMVI melanoma) was 519 nM. For the same compound, the TGI (LOX IMVI melanoma) was 13700 nM, the GI50 (NCI-H522 lung) was 187 nM and the TGI (NCI-H522 lung) was 781 nM. The GI50 (786-0 renal) was 563 nM, the TGI (786-0 renal) was 12600 nM and the GI50 (COLO 205 colon) was 373 nM. It also gave a TGI (COLO 205 colon) of 1320 nM, a GI50 (TK-10 renal) of 7010 nM and a TGI (TK-10 renal) of 63900 nM. For the same compound, the GI50 (OVCAR-5 ovarian) was 513 nM, the TGI (OVCAR-5 ovarian) was 68200 nM and the GI50 (HCC-2998 colon) was 622 nM. For the same compound, the TGI (HCC-2998 colon) was 14500 nM, the GI50 (NCI-H226 lung) was 934 nM and the TGI (NCI-H226 lung) was 9950 nM. It also gave a GI50 (MOLT-4 leukemia) of 403 nM, a TGI (MOLT-4 leukemia) of 11500 nM and a GI50 (T-47D breast) of 449 nM. The TGI (T-47D breast) was 25700 nM, the GI50 (UACC-257 melanoma) was 2910 nM and the TGI (UACC-257 melanoma) was > 56900 nM. It also gave a GI50 (UACC-62 melanoma) of 306 nM, a TGI (UACC-62 melanoma) of 17500 nM and a GI50 (OVCAR-3 ovarian) of 407 nM. For the same compound, the TGI (OVCAR-3 ovarian) was 15300 nM, the GI50 (OVCAR-8 ovarian) was 395 nM and the GI50 (HOP-92 NSCLC) was 4060 nM. The TGI (HOP-92 NSCLC) was 29300 nM, the GI50 (PC-3 prostate) was 410 nM and the TGI (PC-3 prostate) was 39700 nM. The GI50 (CAKI-1 renal) was 464 nM, the TGI (CAKI-1 renal) was > 56600 nM and the GI50 (SNB-19 CNS) was 511 nM. The TGI (SNB-19 CNS) was > 100000 nM, the GI50 (A549 NSCLC) was 634 nM and the TGI (A549 NSCLC) was > 54200 nM. For the same compound, the GI50 (M14 melanoma) was 316 nM, the TGI (M14 melanoma) was 13700 nM and the GI50 (BT-549 breast) was 739 nM. For the same compound, the TGI (BT-549 breast) was 5260 nM, the GI50 (OVCAR-4 ovarian) was 6340 nM and the TGI (OVCAR-4 ovarian) was > 100000 nM. The GI50 (EKVX NSCLC) was 502 nM, the TGI (EKVX NSCLC) was > 100000 nM and the GI50 (MDA-MB-468 breast) was 273 nM. For the same compound, the TGI (MDA-MB-468 breast) was 870 nM, the GI50 (MALME-3M melanoma) was 538 nM and the TGI (MALME-3M melanoma) was 25700 nM. For the same compound, the GI50 (SNB-75 CNS) was 311 nM, the TGI (SNB-75 CNS) was 2260 nM and the GI50 (RPMI-8226 leukemia) was 388 nM. It also gave a TGI (RPMI-8226 leukemia) of 3870 nM, a GI50 (A498 renal) of 15300 nM and a TGI (A498 renal) of 53300 nM. The GI50 (NCI/ADR-RES ovarian) was 268 nM, the TGI (NCI/ADR-RES ovarian) was 739 nM and the GI50 (U251 CNS) was 410 nM. It also gave a TGI (U251 CNS) of 20500 nM, a GI50 (HL-60(TB) leukemia) of 223 nM and a TGI (HL-60(TB) leukemia) of 605 nM. The GI50 (SF-268 CNS) was 997 nM, the TGI (SF-268 CNS) was 39600 nM and the GI50 (SF-295 CNS) was 317 nM. It also gave a TGI (SF-295 CNS) of 13400 nM, a GI50 (HS 578T breast) of 338 nM and a TGI (HS 578T breast) of 65200 nM. The GI50 (SW-620 colon) was 413 nM, the TGI (SW-620 colon) was > 100000 nM and the GI50 (DU-145 prostate) was 454 nM. The TGI (DU-145 prostate) was > 100000 nM, the GI50 (CCRF-CEM leukemia) was 311 nM and the TGI (CCRF-CEM leukemia) was 5010 nM. The GI50 (SK-MEL-5 melanoma) was 315 nM and the TGI (SK-MEL-5 melanoma) was 1150 nM.
